Test results: the supplement of paper PMC5412046
Where a name gives a salt, the structure may show the parent alone.

Legend:
SB.mhdgc-1 [1] = assay: viability at highest tested concentration (MAXR) relative to DMSO; higher = less cytotoxic; details: SB.mhdgc-1 (hereditary c.1380delA CDH1 gastric cancer)
Procedure, shortened: (§1)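 A pintool delivered 23 nL of compound in DMSO to 1536-well plates holding 500 hereditary or sporadic patient-derived gastric cancer cells in 5 μL medium per well, at 11 concentrations in threefold steps. Following 48 h of exposure, cells were treated with CellTiter-Glo for 30 min at room temperature, and plates were read for luminescence on a ViewLux. The reported measure is viability normalised to DMSO, either at the top concentration or as trapezoidal area under the curve.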

SB.msgc-1 [2] = assay: as above; details: SB.msgc-1 (sporadic gastric cancer)
Procedure, shortened: as §1

SB.mhdgc-1 [3] = assay: area under the dose-response curve of % viability (trapezoidal, 11 doses) (% viability x log10 concentration); higher = less cytotoxic; details: SB.mhdgc-1 (hereditary c.1380delA CDH1 gastric cancer)
Procedure, shortened: as §1

SB.msgc-1 [4] = assay: as above; details: SB.msgc-1 (sporadic gastric cancer)
Procedure, shortened: as §1

Compound	viability (SB.mhdgc-1 [1]) [%]	viability (SB.msgc-1 [2]) [%]	area under the dose-response curve (SB.mhdgc-1 [3])	area under the dose-response curve (SB.msgc-1 [4])
CN1CCN2c3ccccc3Cc3ccccc3C2C1 (stereo not given) [Mianserin hydrochloride] (top concentration 46.0829 µM)	80.8	94	508	536
Cc1cc(NC(=O)Nc2ccc(N(C)C)cc2)c2cc(F)cc(F)c2n1 (top concentration 46.0829 µM)	70.1	74.6	495	562
OCCN(CCO)c1nc(N2CCCCC2)c2nc(N(CCO)CCO)nc(N3CCCCC3)c2n1 [Dipyridamole] (top concentration 46.0829 µM)	9.99	19.4	473	512
CC(=O)OC\C1=C(\[N@]2[C@@H](SC1)[C@H](N)C2=O)C(O)=O [7-Aminocephalosporanic acid] (top concentration 46.0829 µM)	86.8	112	512	532
N#C/C(=C1/Nc2ccccc2S1)c1ccnc(OCc2ccc(CN3CCOCC3)cc2)n1 (top concentration 46.0829 µM)	5.64	12.5	267	312
COc1ccc(C2CNC(=O)C2)cc1OC1CCCC1 (stereo not given) [Rolipram] (top concentration 46.0829 µM)	103	65.6	481	362
COc1cc2ncnc(Nc3ccc(F)c(Cl)c3)c2cc1OCCCN1CCOCC1 [Gefitinib] (top concentration 92.1659 µM)	3.99	16	278	314
OC(CCN1CCCCC1)(C2CC\3CC2\C=C3)C4=CC=CC=C4 (stereo not given) [Biperiden] (top concentration 46.0829 µM)	95.5	119	575	576
CC1SC/2=C(C(O)=O)/C(=O)C3=CC(=C(C=C3N12)N4CCN(CC4)C\C5=C(C)\OC(=O)O5)F (stereo not given) [Prulifloxacin] (top concentration 46.0829 µM)	93.9	106	514	582
CN(C)CC(C)(C)CNc1nn2c(-c3ccccc3)nnc2cc1C1CCC1 [Akt-I-1] (top concentration 46.0829 µM)	30.8	67.5	381	528
CCNC(=O)C[C@H]1/N=C(/C2=CC=C(Cl)C=C2)C3=CC(=CC=C3[N]4C(=NN=C14)C)OC (top concentration 46.0829 µM)	36	25.9	476	439
Nc1nc(F)nc2c1ncn2[C@@H]1O[C@H](CO)[C@@H](O)[C@H]1O [2-Fluoroadenosine] (top concentration 46.0829 µM)	44.5	27.3	416	394
CCC[S+](=O)([O-])Nc1ccc(F)c(C(=O)c2c[nH]c3ncc(Cl)cc23)c1F [PLX-4720] (top concentration 46.0829 µM)	66.8	44.8	459	521
CC(C)N(CCNC(=O)CN1CCCC1=O)C(C)C [Pramiracetam hydrochloride] (top concentration 46.0829 µM)	126	124	584	559
Cc1nc2c([nH]1)-c1ccccc1N(C(=O)c1ccc(NC(=O)c3ccccc3-c3ccccc3)cc1)CC2 [Conivaptan hydrochloride] (top concentration 46.0829 µM)	77.5	70.4	503	515
OC1=CC2=C(C(=C1)O)C(=O)\C(=C(/O2)C3=CC(=C(O)C(=C3)O)O)O [Myricetin] (top concentration 46.0829 µM)	108	100	510	484
C/C=C(/C)C(=O)O[C@H]1C(C)=C[C@]23C(=O)[C@@H](C=C(CO)[C@@H](O)[C@]12O)[C@H]1[C@@H](C[C@H]3C)C1(C)C [Ingenol mebutate] (top concentration 46.0829 µM)	85	52.2	433	372
C[C@H](NCc1ccc2c(c1)nc(NC(=O)c1ccc(-c3cn[nH]c3)s1)n2CCc1ccccc1)C(C)(C)C (top concentration 46.0829 µM)	2.84	1.8	350	400
CC(C)(C)OC(=O)Nc1ccc(-c2cc(C(=O)NCCCCCCC(=O)NO)no2)cc1 [ISOX] (top concentration 46.0829 µM)	53.1	3.64	438	351
C[C@@H]1CC[C@H]2[C@@H](C)C(=O)O[C@@H]3O[C@@]4(C)CC[C@@H]1[C@]32OO4 [Artemisinin] (top concentration 46.0829 µM)	90.5	83.8	460	512
Cc1cccc(Nc2nc(N[C@@H]3CCCC[C@@H]3N)ncc2C(N)=O)c1 (top concentration 46.0829 µM)	1.91	24.7	425	483
COc1nccc(-c2c(-c3ccc(F)cc3)ncn2C2CCC(O)CC2)n1 (stereo not given) (top concentration 46.0829 µM)	120	101	558	538
CN1CCC(CNc2ccc3ncc(-c4cccc(OC(F)(F)F)c4)n3n2)CC1 [SGI-1776] (top concentration 46.0829 µM)	5.43	36.7	469	493

Compound	viability (SB.mhdgc-1 [1]) [%]	viability (SB.msgc-1 [2]) [%]	area under the dose-response curve (SB.mhdgc-1 [3])	area under the dose-response curve (SB.msgc-1 [4])
CC(C)(Cc1ccc2ccccc2c1)NC[C@@H](O)COc1cccc(Cl)c1C#N (top concentration 46.0829 µM)	47.5	105	484	585
Cc1n[nH]c2ccc(-c3cncc(OC[C@@H](N)Cc4ccccc4)c3)cc12 (top concentration 46.0829 µM)	0.463	16.3	389	458
Clc1ccc(C(Cn2ccnc2)OCc2ccc(Sc3ccccc3)cc2)c(Cl)c1 (stereo not given) [Fenticonazole nitrate] (top concentration 46.0829 µM)	22.8	51.2	487	493
CC(C)(C)C1=NC2=C([NH]1)C3=CC=C(F)C=C3C4=C2\C=C/NC4=O [Merck 5] (top concentration 46.0829 µM)	119	78.4	531	513
CC(=O)Oc1ccccc1C(=O)Nc1ncc([N+](=O)[O-])s1 [Nitazoxanide] (top concentration 92.1659 µM)	12	13.5	466	425
C[C@]\1(CCS\C(=N1)N)C2=CC(=C(F)C=C2F)C3=CN=CN=C3 (top concentration 46.0829 µM)	33.3	44.7	464	500
Cl.O[C@@H](CNC[C@H](O)[C@H]1CCc2cc(F)ccc2O1)[C@@H]1CCc2cc(F)ccc2O1 [Nebivolol] (top concentration 46.0829 µM)	10.2	79	511	524
CC(=O)O.Cc1c(-c2ccc(O)cc2)n(Cc2ccc(OCCN3CCCCCC3)cc2)c2ccc(O)cc12 [Bazedoxifene] (top concentration 46.0829 µM)	85.4	61.8	561	293
COc1cc(C(=O)NC2CCN(C)CC2)ccc1Nc1ncc2c(n1)N(C1CCCC1)CCC(=O)N2C(C)C (top concentration 46.0829 µM)	4.01	28.1	402	533
O=[S+]([O-])(O)c1ccc2cc(/N=N/c3cc([S+](=O)([O-])O)c4cccnc4c3O)ccc2c1 (top concentration 46.0829 µM)	35.2	36.3	509	513
Cc1cc(Nc2ncc3c(n2)N(C)C(=O)N(c2cc(NC(=O)c4cccc(C(F)(F)F)c4)ccc2C)C3)n(C)n1 [Pluripotin] (top concentration 46.0829 µM)	40.4	45.8	429	438
CN(C)CCN(C)CCc1ccc(Cl)c(Cl)c1 [BD-1047] (top concentration 46.0829 µM)	81.3	89.9	484	539
CCCCCCCCCCCCCC(=O)N[C@H](CO)[C@H](O)c1ccc([N+](=O)[O-])cc1 [D-NMAPPD] (top concentration 46.0829 µM)	45.8	75.2	497	499
CC(=O)O[C@H]1C[C@@H]2CC[C@@H]3[C@H](CC[C@@]4(C)[C@H]3C[C@H]([N+]3(C)CCCCC3)[C@@H]4OC(C)=O)[C@@]2(C)C[C@@H]1N1CCCCC1 [Vecuronium bromide] (top concentration 46.0829 µM)	49.1	66	492	526
OC(COC1=C2C(=O)\C=C(/OC2=CC=C1)C([O-])=O)COC3=C4C(=O)\C=C(/OC4=CC=C3)C([O-])=O [Sodium cromoglycate] (top concentration 46.0829 µM)	73.9	108	415	468
CCn1c(C(=O)N(C2CC2)C2CC2)cc2c3c(ncn3C)c(Nc3cc(C)n(C)n3)nc21 (top concentration 46.0829 µM)	91.1	91.1	503	512
N/C(=N\C(=O)c1nc(Cl)c(N)nc1N)NCc1ccccc1 [Benzamil] (top concentration 46.0829 µM)	3.54	2.75	405	316
CCC(C)CCCCC(=O)N[C@@H](CCN)C(=O)NC(C(=O)N[C@H](CCN)C(=O)N[C@@H]1CCNC(=O)C([C@@H](C)O)NC(=O)[C@@H](CCN)NC(=O)[C@@H](CCN)NC(=O)[C@@H](CC(C)C)NC(=O)[C@H](Cc2ccccc2)NC(=O)[C@H](CCN)NC1=O)[C@@H](C)O (stereo not given in full) [Polymyxin B sulphate] (top concentration 46.0829 µM)	109	102	563	527
OC(=O)\C1=C\N(C2CC2)C3=CC(=C(F)C=C3C1=O)N4CCNCC4 [Ciprofloxacin] (top concentration 46.0829 µM)	125	101	530	519
CN(C)CCc1c[nH]c2ccc(Cn3cncn3)cc12 [Rizatriptan benzoate] (top concentration 46.0829 µM)	107	71.7	589	392
Nc1nc(-c2nn(Cc3ccccc3F)c3ncccc23)nc(N)c1N1CCOCC1 [BAY-41-8543] (top concentration 46.0829 µM)	82.3	73	568	503
CC(C(C)N1CC(=O)NC(=O)C1)N1CC(=O)NC(=O)C1 (stereo not given) [ICRF-193] (top concentration 46.0829 µM)	73.7	93.8	478	479
